Source: ChEMBL document CHEMBL1201862, “PubChem BioAssay data set” (2004)
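These data come from cells grown in 96-well plates and exposed to compound for 48 hours at five concentrations. GI50 = concentration required for 50% inhibition of growth.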 Calls of active or inactive are those of the source. Cut-off read from the data, not from the text of the source: active = GI50 up to about 1.1 µM and inactive = higher.

What was measured:
Assay in all cases: growth of human tumour cells (NCI), 48 h
HT-29 = tested on: HT-29
Malme-3M = tested on: Malme-3M
LXFL 529 = tested on: LXFL 529
HCT-15 = tested on: HCT-15
OVCAR-5 = tested on: OVCAR-5
SK-MEL-28 = tested on: SK-MEL-28
T47D = tested on: T47D
SNB-19 = tested on: SNB-19
OVCAR-4 = tested on: OVCAR-4
XF498 = tested on: XF498
UACC-257 = tested on: UACC-257
SNB-75 = tested on: SNB-75
DLD-1 = tested on: DLD-1
RPMI-8226 = tested on: RPMI-8226
A549 = tested on: A549
NCI-H460 = tested on: NCI-H460
BT-549 = tested on: BT-549
MDA-N = tested on: MDA-N
RXF 393 = tested on: RXF 393
NCI/ADR-RES = tested on: NCI/ADR-RES
SK-MEL-2 = tested on: SK-MEL-2
OVCAR-3 = tested on: OVCAR-3
SR = tested on: SR
MOLT-4 = tested on: MOLT-4
DU-145 = tested on: DU-145
PC-3 = tested on: PC-3
NCI-H522 = tested on: NCI-H522
SF-539 = tested on: SF-539
COLO 205 = tested on: COLO 205
UACC-62 = tested on: UACC-62
HCT-116 = tested on: HCT-116
K562 = tested on: K562
SK-MEL-5 = tested on: SK-MEL-5
DMS-114 = tested on: DMS-114
EKVX = tested on: EKVX
OVCAR-8 = tested on: OVCAR-8
HL-60 = tested on: HL-60
SF-295 = tested on: SF-295
MDA-MB-435 = tested on: MDA-MB-435
TK-10 = tested on: TK-10
SN12C = tested on: SN12C
DMS-273 = tested on: DMS-273
M19-MEL = tested on: M19-MEL
SW-620 = tested on: SW-620
UO-31 = tested on: UO-31
NCI-H23 = tested on: NCI-H23
NCI-H226 = tested on: NCI-H226
MDA-MB-231 = tested on: MDA-MB-231
HOP-62 = tested on: HOP-62
HCC 2998 = tested on: HCC 2998
RXF 631 = tested on: RXF 631
MCF7 = tested on: MCF7
HOP-18 = tested on: HOP-18
786-0 = tested on: 786-0
KM12 = tested on: KM12
LOX IMVI = tested on: LOX IMVI
SNB-78 = tested on: SNB-78
KM-20L2 = tested on: KM-20L2
SF-268 = tested on: SF-268
HOP-92 = tested on: HOP-92
CAKI-1 = tested on: CAKI-1
ACHN = tested on: ACHN
IGROV-1 = tested on: IGROV-1
A498 = tested on: A498
M14 = tested on: M14
U-251 = tested on: U-251
Hs-578T = tested on: Hs-578T
SK-OV-3 = tested on: SK-OV-3
CCRF-CEM = tested on: CCRF-CEM

O=C1C=C(Nc2ccccc2C(=O)CC(=O)C(=O)Nc2cccc(C(F)(F)F)c2)c2ccccc2C1=O was tested, and the GI50 (HT-29) was 57.4 µM (inactive), the GI50 (Malme-3M) was 15.1 µM (inactive) and the GI50 (LXFL 529) was 18.3 µM (inactive). The GI50 (HCT-15) was 19.5 µM, the GI50 (OVCAR-5) was > 77.1 µM (inactive) and the GI50 (SK-MEL-28) was 24.1 µM (inactive). The GI50 (T47D) was > 100 µM (inactive), the GI50 (SNB-19) was 54.3 µM (inactive) and the GI50 (OVCAR-4) was 17.9 µM (inactive). The GI50 (XF498) was 26.2 µM (inactive), the GI50 (UACC-257) was 15.3 µM (inactive) and the GI50 (SNB-75) was 50.4 µM (inactive). The GI50 (DLD-1) was 8.45 µM (inactive), the GI50 (RPMI-8226) was 17.6 µM (inactive) and the GI50 (A549) was 46.5 µM (inactive). The GI50 (NCI-H460) was 27.7 µM (inactive), the GI50 (BT-549) was 8.93 µM (inactive) and the GI50 (MDA-N) was 12.6 µM (inactive). The GI50 (RXF 393) was 20.8 µM (inactive), the GI50 (NCI/ADR-RES) was 13.5 µM (inactive) and the GI50 (SK-MEL-2) was 16.8 µM (inactive). The GI50 (OVCAR-3) was 6.35 µM (inactive), the GI50 (SR) was 8.85 µM (inactive) and the GI50 (MOLT-4) was 4.83 µM (inactive). For the same molecule, the GI50 (DU-145) was 78 µM (inactive), the GI50 (PC-3) was 17.9 µM (inactive) and the GI50 (NCI-H522) was 23.1 µM (inactive). The GI50 (SF-539) was 22.5 µM (inactive), the GI50 (COLO 205) was 66.8 µM (inactive) and the GI50 (UACC-62) was 15.8 µM (inactive). The GI50 (HCT-116) was 23 µM (inactive), the GI50 (K562) was 8.32 µM (inactive) and the GI50 (SK-MEL-5) was 15.8 µM (inactive). The GI50 (DMS-114) was 13 µM (inactive), the GI50 (EKVX) was 37.8 µM (inactive) and the GI50 (OVCAR-8) was 17.3 µM (inactive). For the same molecule, the GI50 (HL-60) was 4.94 µM (inactive), the GI50 (SF-295) was 21.3 µM (inactive) and the GI50 (MDA-MB-435) was 7.5 µM (inactive). The GI50 (TK-10) was > 96.4 µM (inactive), the GI50 (SN12C) was 17.1 µM (inactive) and the GI50 (DMS-273) was 21.5 µM (inactive). For the same molecule, the GI50 (M19-MEL) was 2.53 µM (inactive), the GI50 (SW-620) was 27.6 µM (inactive) and the GI50 (UO-31) was 31.2 µM (inactive). The GI50 (NCI-H23) was 13.6 µM (inactive), the GI50 (NCI-H226) was 61.5 µM (inactive) and the GI50 (MDA-MB-231) was 20 µM (inactive). For the same molecule, the GI50 (HOP-62) was 40 µM (inactive), the GI50 (HCC 2998) was > 41.8 µM (inactive) and the GI50 (RXF 631) was > 100 µM (inactive). For the same molecule, the GI50 (MCF7) was 15.2 µM (inactive), the GI50 (HOP-18) was 13.2 µM (inactive) and the GI50 (786-0) was 25.8 µM (inactive). For the same molecule, the GI50 (KM12) was 24 µM (inactive), the GI50 (LOX IMVI) was 6.04 µM (inactive) and the GI50 (SNB-78) was > 36.7 µM (inactive). The GI50 (KM-20L2) was > 100 µM (inactive), the GI50 (SF-268) was 17.2 µM (inactive) and the GI50 (HOP-92) was 31.4 µM (inactive). The GI50 (CAKI-1) was 64 µM (inactive), the GI50 (ACHN) was 28.3 µM (inactive) and the GI50 (IGROV-1) was 28.4 µM (inactive). For the same molecule, the GI50 (A498) was > 100 µM (inactive), the GI50 (M14) was 16.6 µM (inactive) and the GI50 (U-251) was 31.3 µM (inactive). The GI50 (Hs-578T) was 21 µM (inactive), the GI50 (SK-OV-3) was 61.4 µM (inactive) and the GI50 (CCRF-CEM) was 4.37 µM (inactive).

Cc1c(C(=O)O)oc2ccc([N+](=O)[O-])cc12 was tested, and the GI50 (HT-29) was > 100 µM (inactive), the GI50 (Malme-3M) was > 100 µM (inactive) and the GI50 (LXFL 529) was > 100 µM (inactive). For the same molecule, the GI50 (HCT-15) was over 100 µM, the GI50 (OVCAR-5) was > 100 µM (inactive) and the GI50 (SK-MEL-28) was > 100 µM (inactive). The GI50 (SNB-19) was > 100 µM (inactive), the GI50 (OVCAR-4) was > 100 µM (inactive) and the GI50 (XF498) was > 100 µM (inactive). For the same molecule, the GI50 (UACC-257) was > 100 µM (inactive), the GI50 (DLD-1) was > 100 µM (inactive) and the GI50 (RPMI-8226) was > 10 µM (inactive). For the same molecule, the GI50 (A549) was > 100 µM (inactive), the GI50 (NCI-H460) was > 100 µM (inactive) and the GI50 (SK-MEL-2) was > 100 µM (inactive). The GI50 (OVCAR-3) was > 100 µM (inactive), the GI50 (MOLT-4) was > 10 µM (inactive) and the GI50 (NCI-H522) was > 100 µM (inactive). For the same molecule, the GI50 (SF-539) was > 100 µM (inactive), the GI50 (COLO 205) was > 100 µM (inactive) and the GI50 (UACC-62) was > 100 µM (inactive). The GI50 (HCT-116) was > 100 µM (inactive), the GI50 (K562) was > 100 µM (inactive) and the GI50 (SK-MEL-5) was > 100 µM (inactive). The GI50 (DMS-114) was > 100 µM (inactive), the GI50 (EKVX) was > 100 µM (inactive) and the GI50 (OVCAR-8) was > 100 µM (inactive). The GI50 (HL-60) was > 100 µM (inactive), the GI50 (SF-295) was > 100 µM (inactive) and the GI50 (TK-10) was > 100 µM (inactive). The GI50 (SN12C) was > 100 µM (inactive), the GI50 (DMS-273) was > 100 µM (inactive) and the GI50 (M19-MEL) was > 100 µM (inactive). For the same molecule, the GI50 (SW-620) was > 100 µM (inactive), the GI50 (UO-31) was > 100 µM (inactive) and the GI50 (NCI-H23) was > 100 µM (inactive). For the same molecule, the GI50 (HOP-62) was > 100 µM (inactive), the GI50 (HCC 2998) was > 100 µM (inactive) and the GI50 (RXF 631) was > 100 µM (inactive). For the same molecule, the GI50 (HOP-18) was > 100 µM (inactive), the GI50 (786-0) was > 100 µM (inactive) and the GI50 (KM12) was > 100 µM (inactive). For the same molecule, the GI50 (LOX IMVI) was > 100 µM (inactive), the GI50 (SNB-78) was > 100 µM (inactive) and the GI50 (KM-20L2) was > 100 µM (inactive). For the same molecule, the GI50 (SF-268) was > 100 µM (inactive), the GI50 (HOP-92) was 72.4 µM (inactive) and the GI50 (CAKI-1) was > 100 µM (inactive). The GI50 (ACHN) was > 100 µM (inactive), the GI50 (IGROV-1) was > 100 µM (inactive) and the GI50 (A498) was > 100 µM (inactive). For the same molecule, the GI50 (M14) was > 100 µM (inactive), the GI50 (U-251) was > 100 µM (inactive) and the GI50 (SK-OV-3) was > 100 µM (inactive). The GI50 (CCRF-CEM) was > 100 µM (inactive).
